Columns and labels:
Conditions in all cases: exposure time: 72 h
E21 [1] = patient-derived glioblastoma stem cells of mesenchymal subtype; assay: surviving fraction (nuclei count normalised to DMSO); higher = more cells surviving (less toxic)
E28 [2] = patient-derived glioblastoma stem cells of classical subtype; assay: as above
E34 [3] = patient-derived glioblastoma stem cells of proneural subtype; assay: as above
FT3469 [4] = normal neural stem cell line; assay: as above
E13 [5] = patient-derived glioblastoma stem cells of classical subtype; assay: as above
E57 [6] = patient-derived glioblastoma stem cells of mesenchymal subtype; assay: as above
E31 [7] = patient-derived glioblastoma stem cells of proneural subtype; assay: as above
E21 [8] = assay: phenotypic distance (Euclidean, principal components) from DMSO controls (arbitrary units); higher = stronger morphological change
E28 [9] = assay: as above
E34 [10] = assay: as above
FT3469 [11] = assay: as above
E13 [12] = assay: as above
E57 [13] = assay: as above
E31 [14] = assay: as above
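Wherever phenotypic distance (Euclidean, principal components) from DMSO controls is given: cell Painting imaging in 384-well plates, CellProfiler features reduced to at least 20 principal components, Euclidean distance versus same-plate DMSO vehicle wells (0.1% v/v), median over six images per well.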
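Wherever surviving fraction (nuclei count normalised to DMSO) is given: nuclei counted by high-content imaging of Hoechst-stained cells in laminin-coated 384-well plates, relative to 0.1% DMSO vehicle wells, with staurosporine as cell-death control.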

CCCCCC[C@H]1C(=O)O[C@H](C)[C@H](NC(=O)c2cccc(NC=O)c2O)C(=O)O[C@@H](C)[C@@H]1OC(=O)CC(C)C [Antimycin A]
Conditions	phenotypic distance	surviving fraction
E13 [5], 4.1 nM	–	0.562
E13 [5], 12.3 nM	–	0.544
E13 [5], 37 nM	–	0.546
E13 [5], 111.1 nM	–	0.571
E13 [5], 333.3 nM	–	0.512
E13 [5], 1000 nM	–	0.538
E13 [5], 3000 nM	–	0.416
E13 [12], 4.1 nM	2.21	–
E13 [12], 12.3 nM	2	–
E13 [12], 37 nM	1.93	–
E13 [12], 111.1 nM	2.18	–
E13 [12], 333.3 nM	2.6	–
E13 [12], 1000 nM	2.46	–
E13 [12], 3000 nM	3.04	–
E21 [1], 4.1 nM	–	0.588
E21 [1], 12.3 nM	–	0.629
E21 [1], 37 nM	–	0.542
E21 [1], 111.1 nM	–	0.55
E21 [1], 333.3 nM	–	0.594
E21 [1], 1000 nM	–	0.585
E21 [1], 3000 nM	–	0.494
E21 [8], 4.1 nM	3.65	–
E21 [8], 12.3 nM	3.44	–
E21 [8], 37 nM	4.09	–
E21 [8], 111.1 nM	3.93	–
E21 [8], 333.3 nM	3.39	–
E21 [8], 1000 nM	3.78	–
E21 [8], 3000 nM	3.71	–
E28 [2], 4.1 nM	–	0.8
E28 [2], 12.3 nM	–	0.561
E28 [2], 37 nM	–	0.625
E28 [2], 111.1 nM	–	0.585
E28 [2], 333.3 nM	–	0.506
E28 [2], 1000 nM	–	0.527
E28 [2], 3000 nM	–	0.521
E28 [9], 4.1 nM	0.765	–
E28 [9], 12.3 nM	1.08	–
E28 [9], 37 nM	1.34	–
E28 [9], 111.1 nM	1.41	–
E28 [9], 333.3 nM	1.38	–
E28 [9], 1000 nM	1.86	–
E28 [9], 3000 nM	1.87	–
E31 [7], 4.1 nM	–	0.793
E31 [7], 12.3 nM	–	0.864
E31 [7], 37 nM	–	0.779
E31 [7], 111.1 nM	–	0.683
E31 [7], 333.3 nM	–	0.721
E31 [7], 1000 nM	–	0.599
E31 [7], 3000 nM	–	0.661
E31 [14], 4.1 nM	1.51	–
E31 [14], 12.3 nM	1.62	–
E31 [14], 37 nM	1.68	–
E31 [14], 111.1 nM	1.91	–
E31 [14], 333.3 nM	2	–
E31 [14], 1000 nM	1.59	–
E31 [14], 3000 nM	1.73	–
E34 [3], 4.1 nM	–	0.771
E34 [3], 12.3 nM	–	0.666
E34 [3], 37 nM	–	0.745
E34 [3], 111.1 nM	–	0.619
E34 [3], 333.3 nM	–	0.717
E34 [3], 1000 nM	–	0.682
E34 [3], 3000 nM	–	0.652
E34 [10], 4.1 nM	1.81	–
E34 [10], 12.3 nM	2.11	–
E34 [10], 37 nM	1.7	–
E34 [10], 111.1 nM	2.19	–
E34 [10], 333.3 nM	2.19	–
E34 [10], 1000 nM	2.08	–
E34 [10], 3000 nM	1.39	–
E57 [6], 4.1 nM	–	0.694
E57 [6], 12.3 nM	–	0.642
E57 [6], 37 nM	–	0.581
E57 [6], 111.1 nM	–	0.515
E57 [6], 333.3 nM	–	0.61
E57 [6], 1000 nM	–	0.513
E57 [6], 3000 nM	–	0.466
E57 [13], 4.1 nM	2.07	–
E57 [13], 12.3 nM	3.56	–
E57 [13], 37 nM	4.06	–
E57 [13], 111.1 nM	4.75	–
E57 [13], 333.3 nM	4.39	–
E57 [13], 1000 nM	4.71	–
E57 [13], 3000 nM	5.22	–
FT3469 [4], 4.1 nM	–	0.95
FT3469 [4], 12.3 nM	–	0.895
FT3469 [4], 37 nM	–	0.872
FT3469 [4], 111.1 nM	–	0.823
FT3469 [4], 333.3 nM	–	0.719
FT3469 [4], 1000 nM	–	0.929
FT3469 [4], 3000 nM	–	0.659
FT3469 [11], 4.1 nM	0.791	–
FT3469 [11], 12.3 nM	1.47	–
FT3469 [11], 37 nM	1.52	–
FT3469 [11], 111.1 nM	1.43	–
FT3469 [11], 333.3 nM	1.68	–
FT3469 [11], 1000 nM	1.44	–
FT3469 [11], 3000 nM	1.34	–

Source: the supplement of paper PMC13207355
